In patent US6184018A, “β-glucosidase coding sequences and protein from orpinomyces PC-2” (University of Georgia Research Foundation, Inc., priority 1999, dated 2001) one finds Km and Ki data, which are given here for five molecules.

Read-outs that look alike come from different tables or passages of the source.

The test system of data set [1] is native β-glucosidase of Orpinomyces PC-2. Conditions: Chen et al. (1994), cited from earlier work.
Data set [2] deals with T1, Orpinomyces sp. strain PC-2 β-glucosidase BglA, recombinant, secreted from S. cerevisiae, SEQ ID NO:2 (Orpinomyces sp. PC-2, UniProt Q9UUQ3).
T1 sequence (Q9UUQ3 17-657): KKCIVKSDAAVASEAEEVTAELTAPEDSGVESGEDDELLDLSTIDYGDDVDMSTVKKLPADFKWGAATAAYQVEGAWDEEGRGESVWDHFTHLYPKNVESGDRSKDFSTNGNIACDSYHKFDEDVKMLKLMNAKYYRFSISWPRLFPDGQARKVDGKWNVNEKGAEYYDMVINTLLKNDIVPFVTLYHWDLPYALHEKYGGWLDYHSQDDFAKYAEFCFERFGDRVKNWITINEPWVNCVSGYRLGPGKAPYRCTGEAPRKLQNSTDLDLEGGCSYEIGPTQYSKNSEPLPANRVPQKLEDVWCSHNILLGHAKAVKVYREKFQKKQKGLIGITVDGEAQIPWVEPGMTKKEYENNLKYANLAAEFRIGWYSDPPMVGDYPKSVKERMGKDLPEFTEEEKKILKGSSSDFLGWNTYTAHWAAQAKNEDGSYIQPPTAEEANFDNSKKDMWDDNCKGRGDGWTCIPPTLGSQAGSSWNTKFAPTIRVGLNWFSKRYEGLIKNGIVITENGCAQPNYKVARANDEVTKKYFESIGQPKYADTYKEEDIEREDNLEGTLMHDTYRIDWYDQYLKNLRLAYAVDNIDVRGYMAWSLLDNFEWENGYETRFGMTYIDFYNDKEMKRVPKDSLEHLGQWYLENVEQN
The experiment in a line: Kinetic parameters of purified secreted recombinant BglA (Lineweaver-Burk plots). Format: biochemical. The procedure: (§1) β-Glucosidase (.rho.-nitrophenyl-β-D-glucosidase [.rho.NPGase]) and cellobiase activities were determined by the following standard procedures. With .rho.-nitrophenyl-β-D-glucoside (.rho.NPG) as the substrate, the reaction mixture of 1.2 ml contained 0.3 ml of appropriately diluted enzyme solution, 0.6 ml of 50 mM sodium phosphate buffer, pH 6.0, and 0.3 ml of 12 mM .rho.NPG. The reaction was carried out for 10 min at 40° C. and stopped by the addition of 2.4 ml of 1M Na2 CO3. The liberated .rho.-nitrophenol was measured spectrophotometrically at 405 nm [Herr et al. (1978) Appl. Microbiol. Biotechnol. 5:29-36; Chen et al. (1992) Biochem. Biophys. Acta. 1121:54-60]. Cellobiase activity was determined by using a reaction mixture of 2 ml containing 1 ml of appropriately diluted enzyme solution in 50 mM sodium phosphate buffer, pH 6.0, and 1 ml of 2 mM cellobiose. The reaction was carried out at 40° C. for 30 min and was stopped by placing the assay tubes in boiling water for 5 min. Liberated glucose was measured with a glucose determination kit (Sigma Chemical Co., St. Louis, Mo.) according to the manufacturer's instructions. One unit of β-glucosidase or cellobiase activity is defined as the amount of enzyme required to hydrolyze 1 μmole of substrate per min. Specific activity is expressed as unit per milligram of protein. […]

For data set [3], the system named is β-glucosidase from T. reesei. Conditions: Chen et al. (1992), cited from earlier work.
The target of data set [4] is β-glucosidase from Aspergillus niger (Aspergillus niger, UniProt A2RAL4). Conditions: read-out: Cellobiose affinity (Km); Hoh et al. (1992); cited from earlier work.
The test system of data set [5] is β-glucosidase from Aspergillus nidulans. Conditions: Kwon et al. (1992), cited from earlier work.
Data set [6] relates to β-glucosidase from Aureobasidium pullulans. The note with it: Saha et al. (1995), cited from earlier work.
For data set [7], the system named is β-glucosidase from Thermotoga sp. The note with it: Ruthersmith and Daniel (1993), cited from earlier work.
Data set [8] relates to β-glucosidase from Sporotrichum thermophile. Conditions: Bhat et al. (1993), cited from earlier work.
Data set [9] deals with β-glucosidase from Clostridium thermocellum. Conditions: Katayeva et al. (1992); read-out: Cellobiose affinity (Km); cited from earlier work.
Substrate in data set [10]: O=[N+]([O-])c1ccc(O[C@@H]2O[C@H](CO)[C@@H](O)[C@H](O)[C@H]2O)cc1
The experiment in a line: Kinetic parameters of purified secreted recombinant BglA (Lineweaver-Burk plots). Format: biochemical, Orpinomyces sp. strain PC-2. The note with it: other: 40° C. and pH 6.0. The procedure:
as §1

Substrate in data set [11]: OC[C@H]1O[C@@H](O[C@H]2[C@H](O)[C@@H](O)C(O)O[C@@H]2CO)[C@H](O)[C@@H](O)[C@@H]1O
The data set is described as above. It counts as biochemical, Orpinomyces sp. strain PC-2. The note with it: other: 40° C. and pH 6.0. How it is done: as §1

[12] abbreviates: read-out: Cellobiose affinity (Km).
[13] abbreviates: read-out: Glucose inhibition (Ki).

Broadly, the Km is the concentration of substrate that gives half-maximal velocity. In general, Ki refers to a dissociation constant, usually derived from enzyme kinetics or from competition with a known ligand.

Sequence of β-glucosidase from Aspergillus niger (A2RAL4 20-860): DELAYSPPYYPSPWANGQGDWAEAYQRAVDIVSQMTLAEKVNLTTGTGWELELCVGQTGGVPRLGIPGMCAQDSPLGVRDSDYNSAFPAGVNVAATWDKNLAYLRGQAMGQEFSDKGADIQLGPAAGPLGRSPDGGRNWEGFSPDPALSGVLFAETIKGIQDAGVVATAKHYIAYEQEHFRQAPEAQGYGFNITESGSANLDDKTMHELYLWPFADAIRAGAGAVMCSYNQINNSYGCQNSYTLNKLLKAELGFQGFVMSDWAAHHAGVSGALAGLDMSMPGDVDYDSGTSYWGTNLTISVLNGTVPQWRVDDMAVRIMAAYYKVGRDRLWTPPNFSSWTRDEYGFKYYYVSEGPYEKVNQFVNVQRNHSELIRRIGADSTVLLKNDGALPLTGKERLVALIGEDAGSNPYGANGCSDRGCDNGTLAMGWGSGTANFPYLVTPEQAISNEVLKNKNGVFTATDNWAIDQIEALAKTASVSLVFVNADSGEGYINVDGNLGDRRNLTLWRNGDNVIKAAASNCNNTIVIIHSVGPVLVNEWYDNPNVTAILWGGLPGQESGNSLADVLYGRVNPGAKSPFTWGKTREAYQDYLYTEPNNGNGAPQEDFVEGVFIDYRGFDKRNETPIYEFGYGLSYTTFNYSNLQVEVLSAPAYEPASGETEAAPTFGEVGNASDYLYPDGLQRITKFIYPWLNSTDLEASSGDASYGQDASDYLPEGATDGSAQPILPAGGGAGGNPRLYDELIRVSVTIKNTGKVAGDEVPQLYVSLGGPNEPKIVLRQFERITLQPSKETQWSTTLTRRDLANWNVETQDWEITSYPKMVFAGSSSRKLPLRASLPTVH

Regarding `O=[N+]([O-])c1ccc(O[C@@H]2O[C@H](CO)[C@@H](O)[C@H](O)[C@H]2O)cc1` [pNPG, .rho.-nitrophenyl-β-D-glucoside, reference compound], the Michaelis constant (Km) in [1] (read-out: Km (pNPG as substrate)) is 350 µM.
As for `O=C1O[C@H](CO)[C@@H](O)[C@H](O)[C@H]1O` [glucono-1,5-lactone, reference compound], in [2] (competitive inhibition, pNPG and cellobiose as substrates, read-out: Ki of glucono-1,5-lactone), the inhibition constant (Ki) was 50 µM.
In the case of `OC[C@H]1O[C@@H](O[C@H]2[C@H](O)[C@@H](O)C(O)O[C@@H]2CO)[C@H](O)[C@@H](O)[C@@H]1O` (stereo partly drawn) [Cellobiose, cellobiose (β-1,4-glucobiose)], the Km was 250 µM in [1] (setting [12]); 2100 µM in data set [3] (setting [12]); 890 µM in [4]; 1000 µM in data set [5] (setting [12]); 5650 µM in data set [6] (setting [12]); 19000 µM in data set [7] (setting [12]). The Michaelis constant (Km) in data set [8] (setting [12]) was 830 µM; in data set [9], 77000 µM.
As to `OC[C@H]1OC(O)[C@H](O)[C@@H](O)[C@@H]1O` (stereo partly shown) [Glucose], the inhibitory constant (Ki) was 3600 µM in data set [2]; 8750 µM in [1] (setting [13]); 620 µM in data set [3] (setting [13]); 5480 µM in data set [5] (setting [13]); 1000 µM in data set [6] (setting [13]); 420 µM in [7] (setting [13]). Moreover, in [8] (setting [13]), the Ki was 500 µM.

B1: Orpinomyces sp. strain PC-2 β-glucosidase BglA, recombinant, secreted from S. cerevisiae, SEQ ID NO:2 (Orpinomyces sp. PC-2) (protein)
chain: T1 sequence (Q9UUQ3 17-657)
On to B1, for which the Km was 762 µM in data set [10] and 310 µM in [11].
